Data on 2 compounds can be found in ChEMBL document CHEMBL4017496 (J Med Chem, 2017).

The nature of test [1]: Induction of adipogenesis in human bone marrow-derived mesenchymal stem cells assessed as adiponectin level at 20 uM measured on day 7 after 48 hrs by ELISA. The format is functional, Mesenchymal stem cell.
Test [2] addresses T1, Oxysterols receptor LXR-beta (Homo sapiens) (UniProt P55055).
T1 sequence (whole entry): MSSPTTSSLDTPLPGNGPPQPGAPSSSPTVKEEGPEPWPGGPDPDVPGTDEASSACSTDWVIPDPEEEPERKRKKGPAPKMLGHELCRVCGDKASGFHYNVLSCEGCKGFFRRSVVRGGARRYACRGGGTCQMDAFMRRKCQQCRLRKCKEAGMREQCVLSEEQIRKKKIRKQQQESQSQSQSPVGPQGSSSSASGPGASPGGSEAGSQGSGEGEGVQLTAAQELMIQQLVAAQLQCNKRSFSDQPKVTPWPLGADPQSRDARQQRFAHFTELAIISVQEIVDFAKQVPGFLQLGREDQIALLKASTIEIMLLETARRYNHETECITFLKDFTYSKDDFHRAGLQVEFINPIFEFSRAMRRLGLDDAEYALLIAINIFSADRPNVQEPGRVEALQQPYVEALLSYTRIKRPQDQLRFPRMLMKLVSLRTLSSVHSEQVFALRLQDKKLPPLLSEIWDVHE
Nature of the test: Binding affinity to human LXRbeta at 4 uM by TR-FRET assay. (In general: Time-resolved FRET reads energy transfer from a long-lived donor to a nearby acceptor.)

Test [3] addresses T2, Peroxisome proliferator-activated receptor alpha (Homo sapiens) (UniProt Q07869).
T2 sequence (whole entry): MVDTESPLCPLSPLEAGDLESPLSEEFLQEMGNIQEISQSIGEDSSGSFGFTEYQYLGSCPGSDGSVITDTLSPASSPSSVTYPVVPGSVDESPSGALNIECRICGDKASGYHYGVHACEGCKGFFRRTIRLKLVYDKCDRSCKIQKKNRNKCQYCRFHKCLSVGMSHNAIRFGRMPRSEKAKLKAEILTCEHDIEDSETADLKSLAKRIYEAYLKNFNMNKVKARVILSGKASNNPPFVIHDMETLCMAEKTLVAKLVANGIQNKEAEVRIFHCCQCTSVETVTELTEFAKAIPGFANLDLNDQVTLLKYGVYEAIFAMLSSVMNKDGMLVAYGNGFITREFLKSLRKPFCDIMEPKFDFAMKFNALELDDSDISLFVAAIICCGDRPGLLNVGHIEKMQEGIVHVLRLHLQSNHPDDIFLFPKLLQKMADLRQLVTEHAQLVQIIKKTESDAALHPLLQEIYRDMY
Nature of the test: Displacement of Fluormone-Pan-PPAR Green from human GST-tagged PPARalpha LBD at 20 uM by TR-FRET assay relative to control.

In test [4] the target is T3, Oxysterols receptor LXR-alpha (Homo sapiens) (UniProt Q13133).
T3 sequence (whole entry): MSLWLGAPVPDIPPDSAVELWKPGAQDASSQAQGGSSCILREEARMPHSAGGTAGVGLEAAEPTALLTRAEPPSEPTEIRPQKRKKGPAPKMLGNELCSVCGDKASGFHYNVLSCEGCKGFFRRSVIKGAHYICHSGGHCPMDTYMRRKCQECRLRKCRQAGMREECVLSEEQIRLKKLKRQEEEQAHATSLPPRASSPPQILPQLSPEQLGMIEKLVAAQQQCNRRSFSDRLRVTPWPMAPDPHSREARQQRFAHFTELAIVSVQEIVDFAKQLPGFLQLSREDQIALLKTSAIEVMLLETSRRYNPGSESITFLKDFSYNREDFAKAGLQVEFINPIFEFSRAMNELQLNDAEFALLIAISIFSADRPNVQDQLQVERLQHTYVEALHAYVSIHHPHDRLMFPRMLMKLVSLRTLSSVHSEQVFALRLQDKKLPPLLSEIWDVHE
Nature of the test: Binding affinity to human LXRalpha at 4 uM by TR-FRET assay.

In test [5] the target is T4, Glucocorticoid receptor (Homo sapiens) (UniProt P04150).
T4 sequence (whole entry): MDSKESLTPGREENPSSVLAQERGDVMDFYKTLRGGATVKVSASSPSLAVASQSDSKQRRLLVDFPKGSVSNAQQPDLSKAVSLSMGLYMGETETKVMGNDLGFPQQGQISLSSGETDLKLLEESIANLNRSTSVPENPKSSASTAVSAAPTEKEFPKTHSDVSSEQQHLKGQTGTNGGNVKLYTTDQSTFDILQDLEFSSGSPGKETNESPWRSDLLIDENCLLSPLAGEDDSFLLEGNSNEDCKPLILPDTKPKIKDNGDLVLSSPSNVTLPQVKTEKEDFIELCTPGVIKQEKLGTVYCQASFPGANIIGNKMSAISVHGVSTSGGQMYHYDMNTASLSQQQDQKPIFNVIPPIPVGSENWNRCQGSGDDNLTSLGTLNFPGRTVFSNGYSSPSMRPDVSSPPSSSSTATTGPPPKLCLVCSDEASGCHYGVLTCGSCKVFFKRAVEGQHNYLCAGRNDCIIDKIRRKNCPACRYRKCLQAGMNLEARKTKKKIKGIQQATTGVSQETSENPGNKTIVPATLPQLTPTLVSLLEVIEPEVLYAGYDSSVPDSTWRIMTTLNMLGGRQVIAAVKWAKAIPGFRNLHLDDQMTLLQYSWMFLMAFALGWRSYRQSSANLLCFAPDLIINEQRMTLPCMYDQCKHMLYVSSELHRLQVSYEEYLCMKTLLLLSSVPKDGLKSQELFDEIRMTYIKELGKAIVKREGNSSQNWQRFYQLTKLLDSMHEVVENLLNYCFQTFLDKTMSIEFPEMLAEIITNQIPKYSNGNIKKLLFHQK
Nature of the test: Displacement of Fluormone-GS1 from human GST-tagged glucocorticoid receptor LBD at 4 uM by TR-FRET assay.

In test [6] the target is T5, Peroxisome proliferator-activated receptor delta (Homo sapiens, UniProt Q03181).
T5 sequence (Q03181 whole entry): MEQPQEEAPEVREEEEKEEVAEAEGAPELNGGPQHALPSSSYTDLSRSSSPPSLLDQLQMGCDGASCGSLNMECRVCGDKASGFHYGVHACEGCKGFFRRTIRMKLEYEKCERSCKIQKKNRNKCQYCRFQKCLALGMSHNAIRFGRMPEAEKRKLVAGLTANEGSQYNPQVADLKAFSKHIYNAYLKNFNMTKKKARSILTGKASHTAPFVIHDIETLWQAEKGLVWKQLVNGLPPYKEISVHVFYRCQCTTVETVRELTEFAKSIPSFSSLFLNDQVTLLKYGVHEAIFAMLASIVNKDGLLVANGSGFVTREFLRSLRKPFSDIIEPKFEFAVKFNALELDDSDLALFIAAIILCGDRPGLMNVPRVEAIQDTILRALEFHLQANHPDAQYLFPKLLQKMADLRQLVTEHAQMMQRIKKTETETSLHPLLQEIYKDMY
Briefly: Displacement of Fluormone-Pan-PPAR Green from human GST-tagged PPARdelta LBD by TR-FRET assay.

Test [7] deals with T6, Peroxisome proliferator-activated receptor delta (Homo sapiens) (UniProt Q03181).
T6 sequence (whole entry): T5 sequence (Q03181 whole entry)
Nature of the test: Displacement of Fluormone-Pan-PPAR Green from human GST-tagged PPARdelta LBD at 4 uM by TR-FRET assay relative to control.

The target in test [8] is T7, Peroxisome proliferator-activated receptor gamma (Homo sapiens) (UniProt P37231).
T7 sequence (whole entry): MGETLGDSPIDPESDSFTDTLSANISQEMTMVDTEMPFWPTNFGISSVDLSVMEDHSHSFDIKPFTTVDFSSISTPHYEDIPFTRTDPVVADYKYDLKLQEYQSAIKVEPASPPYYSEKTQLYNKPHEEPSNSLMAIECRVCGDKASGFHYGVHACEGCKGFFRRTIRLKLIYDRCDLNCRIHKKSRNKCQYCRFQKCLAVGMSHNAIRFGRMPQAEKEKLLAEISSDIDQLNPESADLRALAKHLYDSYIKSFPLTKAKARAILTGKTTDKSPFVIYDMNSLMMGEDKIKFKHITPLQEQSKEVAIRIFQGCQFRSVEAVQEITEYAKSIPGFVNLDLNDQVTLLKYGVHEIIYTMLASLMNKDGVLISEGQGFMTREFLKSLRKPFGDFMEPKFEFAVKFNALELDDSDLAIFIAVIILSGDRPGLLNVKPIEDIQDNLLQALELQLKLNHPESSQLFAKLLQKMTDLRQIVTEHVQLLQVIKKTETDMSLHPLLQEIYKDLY
Nature of the test: Displacement of Fluormone-Pan-PPAR Green from human GST-tagged PPARgamma LBD at 4 uM by TR-FRET assay relative to control.

The target of test [9] is T7, Peroxisome proliferator-activated receptor gamma (Homo sapiens). Nature of the test: (§1) Displacement of Fluormone-Pan-PPAR Green from human GST-tagged PPARgamma LBD by TR-FRET assay.
The target in test [10] is T8, Peroxisome proliferator-activated receptor gamma (Homo sapiens, UniProt P37231).
T8 sequence (P37231 whole entry): T7 sequence (whole entry)
The description is as §1.

The nature of test [11]: Induction of adipogenesis in human bone marrow-derived mesenchymal stem cells assessed as adiponectin level at 4 uM measured on day 7 after 48 hrs by ELISA. The format is functional, Mesenchymal stem cell. On the technique in general: ELISA stands for enzyme-linked immunosorbent assay.
The target in test [12] is T2, Peroxisome proliferator-activated receptor alpha (Homo sapiens). Briefly: Displacement of Fluormone-Pan-PPAR Green from human GST-tagged PPARalpha LBD at 4 uM by TR-FRET assay relative to control.
Test [13] concerns Mesenchymal stem cell. Nature of the test: Inhibition of adipogenesis in human bone marrow-derived mesenchymal stem cells at 1 mM after 7 days in presence of IDX. The class given is functional, cell-based.
For test [14], the system named is Mesenchymal stem cell. Briefly: Inhibition of adipogenesis in human bone marrow-derived mesenchymal stem cells assessed as decrease in number and size of lipid droplets at 1 mM after 7 days in presence of IDX by oil red O staining based inverted microscopic method. The format is functional.

Activity calls are given as the source filed them. The rule behind the calls is not given here.

One may read the inhibition as the drop in the measured response relative to a control, in per cent. For orientation: Ki means the dissociation constant of the complex between target and ligand, obtained from inhibition or displacement. A higher Ki goes with lower affinity.

Take `CNC(=O)[C@H]1O[C@@H](n2cnc3c(NCc4cccc(I)c4)nc(Cl)nc32)[C@H](O)[C@@H]1O` [NAMODENOSON]: the Activity was 603 pg/mL in test [1] and 221 pg/mL in [11]. In addition, the result in [2] and in test [4] was inactive. Also, the inhibition is 46.5% in test [3], 75% in test [7], 59% in test [8] and “Dose-dependent effect” in [9]. The inhibition result in test [5] and in [12] was “inactive” in each case. For the same compound, the Ki was determined as 430 nM in [6] and 2180 nM in [10].
In the case of `Cn1c(=O)c2c(ncn2C)n(C)c1=O`, the inhibition result in test [13] and in test [14] was “Active” throughout.
